Assay results published in article PMC8850458, “The AUTOTAC chemical biology platform for targeted protein degradation via the autophagy-lysosome system” (Nature Communications, 2022).
Several values for one entry are separate records, joined by “and”; a condition that tells them apart may be missing. Equal entries are not always repeated. Where two headings read alike, the source gives them in different places.

What was measured:
[1] = molecular target: T1, tau oligomers (htauP301L-BiFC bodies) and phosphorylated tau-BiFC (Homo sapiens, UniProt P10636, P618L); experiment: Immunohistochemistry of BiFC and AT8 fluorescence in brains of hTauP301L-BiFC mice; assay type: in vivo; conditions: for Sudan black B AVG CA1: control 32.0843; for Sudan black B AVG Cortex: control 98.7415; for AT8 AVG CA1 / AT8 AVG % CA1 / AT8 AVG % Cortex / AT8 AVG Cortex / AT8 CA1, per animal / AT8 Cortex, per animal: Fig. 6l; for AT8 AVG CA1: control 95.3926; for AT8 AVG Cortex: control 109.457; for AT8 CA1, per animal: control AVG 95.3926; for AT8 Cortex, per animal: control AVG 109.457
T1 construct: from tissue; host or cells: brain of 9-month-old hTauP301L-BiFC transgenic mice (C57BL/6)
T1 sequence (P10636 1-441 isoform P10636-8 P301L): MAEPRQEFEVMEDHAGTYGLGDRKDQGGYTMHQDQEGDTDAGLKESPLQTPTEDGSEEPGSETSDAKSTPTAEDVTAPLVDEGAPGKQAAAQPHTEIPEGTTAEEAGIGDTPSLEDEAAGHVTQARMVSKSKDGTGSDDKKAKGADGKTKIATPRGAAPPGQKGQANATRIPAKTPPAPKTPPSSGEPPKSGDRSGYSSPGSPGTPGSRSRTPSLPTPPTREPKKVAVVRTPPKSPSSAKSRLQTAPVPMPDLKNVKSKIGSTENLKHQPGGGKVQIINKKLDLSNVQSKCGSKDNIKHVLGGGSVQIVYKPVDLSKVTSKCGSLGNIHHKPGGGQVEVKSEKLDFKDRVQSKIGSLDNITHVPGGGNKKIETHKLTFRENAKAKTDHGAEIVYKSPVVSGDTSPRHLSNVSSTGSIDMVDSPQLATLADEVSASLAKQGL

Ub-conjugated aggregates = experiment: WB autophagic flux of Ub-conjugated aggregates in HEK293T cells under proteasomal inhibition; assay type: cell-based
Method: Fig. 4 Targeted autophagic delivery and degradation of misfolded protein cargoes using AUTOTACs with aggregate-binding warhead. a A model illustrating the mode of action of aggregate-targeting AUTOTAC. b Chemical structures of PBA-1105, PBA-1106, Anle138b-F105 and PBA-1105b. c In vitro p62 oligomerization assay in HEK293T cells incubated with the indicated compounds in (b). d WB in HEK293T cells treated with MG132 (1 μM, 24 h), HCQ (10 μM, 24 h), PBA-1105, YTK-1105, and PBA (1 μM, 24 h). e Identical to (d), but with Anle-F105. f ICC of HeLa cells treated with HCQ (10 μM, 24 h), MG132 (2 μM, 18 h) or both in the presence of PBA-1106, YOK-1106 or PBA (1 μM, 24 h). Scale bar, 10 μm. g Quantification of (f) (n = 3, 50 cells). h ICC of HeLa cells treated with Anle138b-F105 (1 μM, 24 h). Scale bar, 10 μm. i Quantification of (h) (n = 3, 50 cells). When indicated, n = 3 biologically independent experiments each counting 50 cells. Data are presented as mean values ± SD where relevant. P-values (from a two-sided unpaired t test): ***P < 7.66E−05. Source data are provided with this paper.
Adherent cells were washed with phosphate-buffered saline (PBS) and cell pellets were lysed in SDS-based sample buffer (277.8 mM Tris-HCI, pH 6.8, 4.4% LDS, 44.4% (v/v) glycerol) containing beta-mercaptoethanol. […] Densitometry of developed bands was measured and analyzed with ImageJ (NIH, Bethesda).

wild-type desmin = molecular target: T2, wild-type desmin (Homo sapiens, UniProt P17661); experiment: WB degradation of wild-type desmin in HeLa cells; assay type: cell-based; conditions: exogenously expressed
T2 construct: expressed in transfected cells; host or cells: HeLa, transient
T2 sequence (P17661 whole entry): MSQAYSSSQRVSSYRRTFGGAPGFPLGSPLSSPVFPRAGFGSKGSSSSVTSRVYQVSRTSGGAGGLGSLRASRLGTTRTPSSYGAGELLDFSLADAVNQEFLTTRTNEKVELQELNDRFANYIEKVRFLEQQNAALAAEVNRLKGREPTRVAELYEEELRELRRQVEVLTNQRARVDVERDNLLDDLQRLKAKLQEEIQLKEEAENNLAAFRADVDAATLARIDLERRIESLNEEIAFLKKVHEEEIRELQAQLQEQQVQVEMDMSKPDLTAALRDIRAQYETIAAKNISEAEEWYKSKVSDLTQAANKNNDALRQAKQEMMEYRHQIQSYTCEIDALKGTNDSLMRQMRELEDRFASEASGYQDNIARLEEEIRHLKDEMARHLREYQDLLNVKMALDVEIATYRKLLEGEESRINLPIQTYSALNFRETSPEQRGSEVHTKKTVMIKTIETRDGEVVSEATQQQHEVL
Method: Adherent cells were washed with phosphate-buffered saline (PBS) and cell pellets were lysed in SDS-based sample buffer (277.8 mM Tris-HCI, pH 6.8, 4.4% LDS, 44.4% (v/v) glycerol) containing beta-mercaptoethanol. Alternatively, cell pellets or protein supernatants were lysed in 5X Laemmli sample buffer. Whole-cell lysates were separated using SDS-PAGE, and transferred onto polyvinyllidene difluoride membranes at 100 V for 2 h at 4 °C. The membrane was incubated with a blocking solution consisting 4% skim milk in PBS solution for 30 min at room temperature and incubated with primary antibodies overnight, followed by incubation with host-specific HRP-conjugated secondary antibodies (1:10000 dilution). For signal detection, the membrane was developed with a mixture of ECL solution (Thermo Fisher Scientific) using X-ray films. Densitometry of developed bands was measured and analyzed with ImageJ (NIH, Bethesda).
Supplementary Fig. 5. AUTOTACs selectively target pathological aggregation-prone proteins for autophagic degradation. (a) WB in HEK293T cells treated with PBA-1105 (1 μM) and MG132 (1 μM, 24 h) at the indicated time points. (b) ICC of HeLa cells treated with the indicated compounds (1 μM, 24 h). Scale bar, 10 μm. (c) WB in HEK293T cells treated with PBA-1105 (500 nM, 24 h) and MG132 (1 μM, 24 h) under siRNA-mediated knockdown of p62 or ATG7 (20 nM, 48 h). (d) ICC in HeLa cells transiently expressing WIPI2-GFP and treated with Anle138b-F105 (1 μM, 24 h). Scale bar, 10 μm. (e) ICC in HeLa cells treated with […]
nM, 24 h). (g, h) WB in HeLa cells transiently expressing wild type or mutant (L385P) desmin-flag with LacZ-myc and treated with PBA-1105, PBA-1105b or Anle138b-F105 at the […]

[2] = tested on: endogenous wild-type murine tau; conditions: for AVG (%) Insoluble mTau / AVG (%) Soluble mTau: control 100
[3] = tested on: AR pathways (EGFR, p-Akt/Akt); experiment: WB of AR downstream signaling in DHT-activated cells; assay type: cell-based; conditions: levels of EGFR and p-Akt/Akt
Text: To assess the therapeutic efficacy of autophagy-targeting degraders, we compared the downstream signaling of AR and ERβ in cells treated with either AUTOTACs or their cognate TBLs. Dihydrotestosterone (DHT) and estradiol (E2) are natural agonists that respectively bind AR and ERβ and induce their dimerization and nuclear translocation, resulting in transcriptional activation of downstream proteins[27],[28]. […] Next, we examined the potency of AUTOTACs in cancer cell growth and progression.
Adherent cells were washed with phosphate-buffered saline (PBS) and cell pellets were lysed in SDS-based sample buffer (277.8 mM Tris-HCI, pH 6.8, 4.4% LDS, 44.4% (v/v) glycerol) containing beta-mercaptoethanol. Alternatively, cell pellets or protein supernatants were lysed in 5X Laemmli sample buffer. Whole-cell lysates were separated using SDS-PAGE, and transferred onto polyvinyllidene difluoride membranes at 100 V for 2 h at 4 °C.

SMILES: O=C(CCCc1ccccc1)NCCOCCOCCOCCNCc1ccc(OCc2ccccc2)c(OCc2ccccc2)c1 [PBA-1105]
- Sudan black B AVG CA1 ([1]; Fig. 6k, 20 mg/kg): 24
- Sudan black B AVG Cortex ([1]; Fig. 6k, 20 mg/kg): 61.9321
- Sudan black B AVG CA1 ([1]; Fig. 6k, 50 mg/kg): 34.5914
- Sudan black B AVG Cortex ([1]; Fig. 6k, 50 mg/kg): 38.2621
- Sudan black B AVG % CA1 ([1]; Fig. 6k, 50 mg/kg, control 100): 107.814%
- AT8 AVG CA1 ([1]; 20 mg/kg): 71.2628
- AT8 AVG % CA1 ([1]; 20 mg/kg, control 100): 74.7047%
- AT8 AVG % Cortex ([1]; 20 mg/kg, control 100): 77.6283%
- AT8 AVG Cortex ([1]; 20 mg/kg): 84.9698
- AT8 CA1, per animal ([1]; 20 mg/kg): 75.563 and 74.477 and 82.816 and 64.806 and 58.652
- AT8 Cortex, per animal ([1]; 20 mg/kg): 72.808 and 80.823 and 112.523 and 115.092 and 43.603
- AT8 AVG CA1 ([1]; 50 mg/kg): 65.5443
- AT8 AVG % CA1 ([1]; 50 mg/kg, control 100): 68.7101%
- AT8 AVG % Cortex ([1]; 50 mg/kg, control 100): 62.2901%
- AT8 AVG Cortex ([1]; 50 mg/kg): 68.181
- AT8 CA1, per animal ([1]; 50 mg/kg): 51.948 and 69.287 and 60.135 and 88.15 and 58.518 and 65.228
- AT8 Cortex, per animal ([1]; 50 mg/kg): 68.316 and 68.839 and 67.094 and 66.047 and 57.905 and 80.885
- soluble bodies of phosphorylated tau-BiFC (AT8 staining) ([1]; cortex and CA1 region): marked eradication
- total tau oligomers (BiFC) in cortex and CA1 region of hippocampus ([1]; hTauP301L-BiFC mice, dosage-dependent): drastic reduction
- autophagic flux index of Ub-conjugated aggregates (Ub-conjugated aggregates; 1 μM 24 h, MG132 1 μM, HCQ 10 μM, control index 1): 2.2
- duration of sustained autophagic flux of Ub-conjugated aggregates (Ub-conjugated aggregates; 1 μM, MG132): at least 48 h
- degradation of wild-type desmin (wild-type desmin): not wild-type desmin
- AVG (%) Insoluble mTau ([2]; 20 mg/kg): 110.945%
- AVG (%) Soluble mTau ([2]; 20 mg/kg): 97.7163%
- AVG (%) Insoluble mTau ([2]; 50 mg/kg): 56.7728%
- AVG (%) Soluble mTau ([2]; 50 mg/kg): 133.669%
- endogenous wild-type murine tau in detergent-soluble or -insoluble fractions ([2]; mouse, in vivo): did not degrade

SMILES: C=CC(C)(O)C(=O)N(C(=O)NCCOCCOCCNCC(O)COc1ccc(OCCc2ccccc2)c(OCCc2ccccc2)c1)c1cc(Cl)cc(Cl)c1 (stereo not shown) [VinclozolinM2-2204]
- inhibition of AR pathways relative to its TBL [3]: approximately 4 folds
